Laboratory results reported in US12521384B2, “Drug delivery composition using crosslinked hyaluronic acid and manufacturing method therefor” (JP cares, priority 2020, dated 2026).

Legend:
Sprague-Dawley rats = assay: Mechanical allodynia degree (threshold), von Frey up-down method, after plantar incision; assay type: in vivo; conditions: Gb: Ro 0.75% 300 + SC 300 (ropivacaine 2.25 mg); for threshold value (g), group average: once near sciatic nerve
Protocol: Specific pathogen-free (SPF) Sprague-Dawley rats [Cr1:CD (Sprague Dawley)] (Producer: Orient Bio Inc. (322, Galmachi-ro, Jungwon-gu, Seongnam-si, Gyeonggi-do)) were prepared according to the following condition. • (1) Number of animals at acquisition: male 28 rats • (2) Age at acquisition: about 7-week-old • (3) Body weight range at acquisition: 199.29 to 222.35 g • (4) Age at start of administration: about 8-week-old • (5) Body weight range at start of administration: 265.63 to 294.00 g • (6) Number of animals used: 24 rats • (7) Group separation
After disinfecting the left plantar part of the prepared test animals under general anesthesia, the skin and fascia with a length of 1 cm were incised in the longitudinal direction starting from the part 0.5 cm away from the tip of the back of the foot. The sole muscle (plantar muscle) of the incised part was lifted with forceps to separate 1 cm in length. […] All Ga to Gd doses […] were equally administered near the nerve tissue, and the number of animals comprised in the experimental group were 6.
As a method for measuring the degree of mechanical allodynia after preparing the test groups, a white rat was placed in a wire mesh cage with a net eye size of 2×2 mm and acclimatized for 15 minutes or more, and then the continuous reaction was evaluated by an up-down method using 8 consecutive von Frey filaments (1, 2, 4, 6, 8, 15, 26, 60 g, Stoelting, USA) when the movement of the rat became quiet. […] It was progressed as the weak filament was stimulated when the positive reaction was shown by stimulating from the von Frey filament in the center, and the strong filament was stimulated when there was no positive reaction. By the above method, measurement was performed before, and at 1, 2, 4, 8, 24, 48, 72, 120, 168 hours after administration of the test substance. For interpretation of the result of the pain behavior test, the case in that avoidance reaction was shown or the foot was lifted up on the net while in contact with a plastic plate was determined as positive. Stimulation was given twice at an interval of 3-5 minutes, and using the positive threshold among them, a response change curve with time was obtained.
Pain threshold values were measured before and at 1, 2, 4, 8, 24, 48, 72, 120, 168 after administration of the test substance of each animal of the Ga to Gd group test groups, and the average of the threshold values of each test group was calculated. In Table 4 below, the threshold value (g) measured over time of drug administration was shown.

[1] = Drug release behavior of bupivacaine (dialysis bag in PBS, RP-HPLC); assay type: physicochemical; conditions: 8 hours; PBS 37° C., 100 rpm
Protocol: By mixing the crosslinked hyaluronic acid gels, JPD001, JPD004 and (mixture of JPD001 and JPD004 at a weight ratio of 1:1) comprising the crosslinked hyaluronic acid solid prepared in Example 1 at a content of 2% by weight, which are Samples 1-1, 1-4 and 1-5 of Example 1 of 6 g, respectively, and 0.75% by weight bupivacaine solution 3 g, a drug preparation was prepared. A preparation in which non-crosslinked hyaluronic acid having a molecular weight of 1,500 kDa (repeated unit molecular weight 401.3) 2% by weight and a preparation comprising only the bupivacaine drug were prepared, respectively, as a control group.
The prepared drug preparation was put in a dialysis bag (MWCO: 12 K-14 K Da), separately. Then, the dialysis bag was immersed into a tube with 15 ml phosphate buffer solution. The 50 mL conical tube in which the immersed dialysis bag was put was placed in a shaking tank maintained at 37° C. and shaken at 100 rpm horizontally. Then, at scheduled time intervals, a release medium (PBS) aliquot of 1.5 mL was collected and the entire release medium was replaced with new PBS to maintain a sink condition. Quantification of the released bupivacaine was determined by reverse-phase high-performance liquid chromatography (RP-HPLC) using a ZORBAX Eclipse XDB C18 column (4.6 mm×250 mm, 5 μm) and acetonitrile/pH 8.0 buffer (60:40, v/v) for 10 minutes or more.

cumulative release amount of bupivacaine [1] [%] | Structure (SMILES) | time at which the pain was completely recovered (Sprague-Dawley rats) [h] | threshold value (g), group average (Sprague-Dawley rats; 0 hr (before administration)) [g] | threshold value (g), group average (Sprague-Dawley rats; 1 hr) [g] | threshold value (g), group average (Sprague-Dawley rats; 2 hr) [g] | threshold value (g), group average (Sprague-Dawley rats; 4 hr) [g] | threshold value (g), group average (Sprague-Dawley rats; 8 hr) [g] | threshold value (g), group average (Sprague-Dawley rats; 24 hr) [g] | threshold value (g), group average (Sprague-Dawley rats; 48 hr) [g] | threshold value (g), group average (Sprague-Dawley rats; 72 hr) [g] | threshold value (g), group average (Sprague-Dawley rats; 120 hr) [g] | threshold value (g), group average (Sprague-Dawley rats; 168 hr) [g]
 | CCCN1CCCC[C@H]1C(=O)Nc1c(C)cccc1C [Ropivacaine, ropivacaine] | 120 | 60 | 60 | 60 | 37.3 | 31.7 | 28.0 | 17.5 | 29.8 | 60 | 60
99 | CCCCN1CCCCC1C(=O)Nc1c(C)cccc1C (stereo not drawn) [bupivacaine] |  |  |  |  |  |  |  |  |  |  | 
